In ChEMBL document CHEMBL1154493, “Oxidative inactivation of protein tyrosine phosphatase 1B by organic hydroperoxides” (Bioorg Med Chem Lett, 2008):
Active and inactive are the calls of the source. No cut-off for these calls is given here.

What was measured:
[1] = target: T1, Tyrosine-protein phosphatase non-receptor type 1 (Homo sapiens) (UniProt P18031); test: Inactivation of PTP1B at 150 nM
T1 sequence (whole entry): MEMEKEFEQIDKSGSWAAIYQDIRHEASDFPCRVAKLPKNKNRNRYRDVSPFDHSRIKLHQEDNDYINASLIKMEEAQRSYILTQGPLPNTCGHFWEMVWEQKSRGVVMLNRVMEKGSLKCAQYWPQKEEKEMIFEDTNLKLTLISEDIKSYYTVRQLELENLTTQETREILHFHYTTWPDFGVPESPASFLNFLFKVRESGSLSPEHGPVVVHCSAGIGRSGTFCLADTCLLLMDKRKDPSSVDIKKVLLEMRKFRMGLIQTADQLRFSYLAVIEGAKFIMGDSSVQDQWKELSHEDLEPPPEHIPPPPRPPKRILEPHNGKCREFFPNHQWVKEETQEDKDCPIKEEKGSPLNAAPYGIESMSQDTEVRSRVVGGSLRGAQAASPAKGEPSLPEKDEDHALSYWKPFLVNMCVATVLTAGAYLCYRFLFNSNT

[2] = target: T1, Tyrosine-protein phosphatase non-receptor type 1 (Homo sapiens); test: Inactivation of PTP1B at 15 uM after 15 sec in presence of phosphate ion
[3] = target: T1, Tyrosine-protein phosphatase non-receptor type 1 (Homo sapiens); test: Inactivation of PTP1B at 15 uM after 15 sec in presence of glutathione
[4] = target: T1, Tyrosine-protein phosphatase non-receptor type 1 (Homo sapiens); test: Inactivation of PTP1B assessed as return of enzyme activity at 800 nM for 10 mins in presence of dithiothreitol
[5] = target: T1, Tyrosine-protein phosphatase non-receptor type 1 (Homo sapiens); test: Inactivation of PTP1B at 15 uM after 15 sec
[6] = target: T1, Tyrosine-protein phosphatase non-receptor type 1 (Homo sapiens); test: Inactivation of PTP1B assessed as return of enzyme activity at 5 uM after 10 mins in presence of dithiothreitol
[7] = target: T2, Tyrosine-protein phosphatase non-receptor type 1 (Homo sapiens, UniProt P18031); test: Inhibition of PTP1B
T2 sequence (P18031 whole entry): T1 sequence (whole entry)

Compound | Activity [1] | Activity [2] | Activity [3] | Activity [4] | Activity [5] | Activity [6] | Ki [7]
O=C(O)c1ccccc1C(=O)OO | Active |  |  |  |  |  | 
O=C(OO)c1cccc(Cl)c1 | Active |  |  |  |  |  | 
CC(=O)OO [ETHANEPEROXOIC ACID] |  | 49% | 29% | 73% | 88% | 10% | 17 mM
